Measured values: patent US20080131534A1, “USE OF A PLANT EXTRACT OR PLANT JUICE” (Melbrosin International Produktions- und Vertriebs GesmbH & …, priority 2006, published 2008)
Read-outs that look alike come from different tables or passages of the source.

Target: T1, PPAR-gamma (Homo sapiens, UniProt P37231)
T1 construct: purchased Invitrogen
T1 sequence (P37231 238-503 limits assumed): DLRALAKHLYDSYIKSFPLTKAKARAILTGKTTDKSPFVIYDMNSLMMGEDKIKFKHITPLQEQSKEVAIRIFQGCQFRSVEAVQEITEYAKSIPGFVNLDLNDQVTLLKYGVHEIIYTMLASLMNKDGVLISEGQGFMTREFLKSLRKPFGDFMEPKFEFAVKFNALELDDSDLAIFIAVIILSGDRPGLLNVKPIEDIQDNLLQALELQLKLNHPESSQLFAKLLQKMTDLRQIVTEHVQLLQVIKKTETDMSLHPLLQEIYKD
Assay: Polar Screen PPAR Competitive Assay (fluorescence polarization ligand binding)

[1] = Table 1, result in words, *tested to a concentration of 0.1 M
[2] = Table 1, tested substances, read-out: EC50
[3] = Table 3, active substances in Oregano, read-out: EC50

Experimental: The clear supernatant was further diluted by DMSO and then binding to PPARγwas tested by Peroxisome Proliferator-Activated Receptor-gamma Competitor Assay Kit, Green (Invitrogen, Carlsbad, Calif.).
PPAR-gamma-LBD and the fluorescent PPAR-gamma ligand (Fluormone™ PPAR Green) form a PPAR-gamma-LBD/Fluormone™ PPAR-gamma Green complex which has a high polarization value. If a competitor of PPAR-gamma is added the fluorescent ligand is displaced. This causes that the Fluoromone is free in solution and tumbles rapidly during its fluorescence lifetime which results in a low polarisation value.
1 μl of test compounds, which was dissolved and diluted in DMSO, was transferred into a microwell plate. Complete screening buffer was prepared by addition of 0.5 μl DTT (1M) to 1 ml PPAR Green Screening Buffer. 19 μl of this buffer was added to each well of microwell plate. […] 20 μl of this solution was added to each well. The plate is covered to protect the reagents from light and incubated for two hours at room temperature.
Data of the ligand binding assay were calculated in the following way: Polarization values were plotted against the concentration of test compound. The curve was fitted using a logistic dose-response model from Table Curve 2D software (Jandel Scientific). The used function was:

| SMILES | EC50 [1] | EC50 [2] [µM] | also measured |
| --- | --- | --- | --- |
| CCCCCC(C)=O [2-Heptanon] | does not bind* | – | – |
| O=C(/C=C/c1ccccc1O)c1ccccc1 [2-Hydroxychalcone] | – | 2.9 | – |
| O=C(/C=C/c1ccccc1)c1ccccc1O [2′-Hydroxychalcone] | – | – | EC50: 20 µM |
| O=C(/C=C/c1ccccc1)c1ccccc1O [2′-OH-Chalcone] | – | – | EC50 (Table 1, result in words): does not bind |
| O=c1c(O)c(-c2ccccc2)oc2ccccc12 [3-Hydroxyflavon] | – | > 500 | – |
| O=c1cc(-c2ccc(O)cc2)oc2cc(OC3O[C@H](CO)[C@@H](O)[C@H](O)[C@H]3O)cc(O)c12 (stereo partly shown) [Apigenin-7Glycoside] | – | – | EC50 [3]: > 500 µM |
| O=c1cc(-c2ccc(O)cc2)oc2cc(O)cc(O)c12 [Apigenin] | – | 104 | EC50 [3]: 104 µM |
| COc1ccc(-c2coc3cc(O)cc(O)c3c2=O)cc1 [Biochanin A] | – | 20 | EC50 [3]: 20 µM |
| O=C(Nc1ccccc1)c1cc([N+](=O)[O-])ccc1Cl [CW9662, 2-Chloro-5-nitrobenanilide, reference compound] | – | 0.0107 | – |
| O=C(O)/C=C/c1ccc(O)c(O)c1 [Caffeic acid] | does not bind* | – | – |
| COc1cc(CNC(=O)CCCC/C=C/C(C)C)ccc1O [Capsaicin] | – | > 500 | – |
| O=CC=Cc1ccccc1 [Cinnamaldehyde] | – | 10.4 | – |
| O=c1oc2cc(O)ccc2c2oc3cc(O)ccc3c12 [Coumestrol] | – | 8.5 | – |
| COc1cc(/C=C/C(=O)CC(=O)/C=C/c2ccc(O)c(OC)c2)ccc1O [Curcumin] | – | – | EC50 (Table 1, result in words): does not bind |
| O=c1c(-c2ccc(O)cc2)coc2cc(O)ccc12 [Daidzein] | – | 470 | – |
| O=c1c(-c2ccc(O)cc2)coc2cc(O[C@@H]3O[C@H](CO)[C@@H](O)[C@H](O)[C@H]3O)ccc12 [Daidzin] | does not bind* | – | – |
| C=CCSCC=C [Diallylsulfide] | does not bind* | – | – |
| COc1ccc(-c2cc(=O)c3c(O)cc(O[C@@H]4O[C@H](CO[C@@H]5O[C@@H](C)[C@H](O)[C@@H](O)[C@H]5O)[C@@H](O)[C@H](O)[C@H]4O)cc3o2)cc1O [Diosmin] | does not bind* | – | – |
| OC[C@H](Cc1cccc(O)c1)[C@H](CO)Cc1cccc(O)c1 [Enterodiol] | – | > 500 | – |
| O=C1OC[C@H](Cc2cccc(O)c2)[C@H]1Cc1cccc(O)c1 [Enterolacton] | – | > 500 | – |
| Oc1cc(O)c2c(c1)O[C@H](c1ccc(O)c(O)c1)[C@H](O)C2 [Epicatechin] | – | > 500 | – |
| Oc1ccc([C@H]2COc3cc(O)ccc3C2)cc1 [Equol] | – | 60 | – |

| SMILES | EC50 [1] | EC50 [2] [µM] | also measured |
| --- | --- | --- | --- |
| O=C1C[C@@H](c2ccc(O)c(O)c2)Oc2cc(O)cc(O)c21 [Eriodictyol] | – | 66 | EC50 [3]: 66 µM |
| C[C@]12CC[C@@H]3c4ccc(O)cc4CC[C@H]3[C@@H]1CCC2=O [Estron] | does not bind* | – | – |
| CCOC(=O)C=Cc1ccccc1 [Ethylcinnamate] | – | 2700 | – |
| C=CCc1ccc(O)c(OC)c1 [Eugenol] | – | 420 | – |
| COc1cc(/C=C/C(=O)O)ccc1O [Ferrulic acid] | – | – | EC50 (Table 1, result in words): does not bind |
| COc1ccc(-c2coc3cc(O)ccc3c2=O)cc1 [Formononetin] | does not bind* | – | – |
| O=c1c(O)c(-c2ccccc2)oc2cc(O)cc(O)c12 [Galangin] | – | 143 | – |
| O=C(O)c1cc(O)c(O)c(O)c1 [Gallic acid] | – | – | EC50: 128 µM |
| O=c1c(-c2ccc(O)cc2)coc2cc(O)cc(O)c12 [Genistein] | – | – | EC50: 22 µM |
| O=c1c(-c2ccc(O)cc2)coc2cc(O[C@@H]3O[C@H](CO)[C@@H](O)[C@H](O)[C@H]3O)cc(O)c12 [Genistin] | does not bind* | – | – |
| COc1ccc([C@@H]2CC(=O)c3c(O)cc(O[C@@H]4O[C@H](CO[C@@H]5O[C@@H](C)[C@H](O)[C@@H](O)[C@H]5O)[C@@H](O)[C@H](O)[C@H]4O)cc3O2)cc1O [Hesperidin] | – | > 500 | – |
| O=c1c(O[C@@H]2O[C@H](CO)[C@H](O)[C@H](O)[C@H]2O)c(-c2ccc(O)c(O)c2)oc2cc(O)cc(O)c12 [Hyperoside] | – | – | EC50 (Table 1, result in words): does not bind |
| OCc1c[nH]c2ccccc12 [Indol-3-Carbinol] | – | > 500 | – |
| O=c1c(OC2OC(CO)C(O)C(O)C2O)c(-c2ccc(O)c(O)c2)oc2cc(O)cc(O)c12 (stereo not shown) [Isoquercetrin] | – | 52 | EC50 [3]: 53 µM |
| O=c1c(O)c(-c2ccc(O)cc2)oc2cc(O)cc(O)c12 [Kaempferol] | – | 467 | EC50 [3]: 467 µM |
| C=CC(C)(O)CCC=C(C)C (stereo not shown) [Linalool] | does not bind* | – | – |
| O=c1cc(-c2ccc(O)c(O)c2)oc2cc(O)cc(O)c12 [Luteolin] | – | 4 | EC50 [3]: 4 µM |
| O=c1c(O)c(-c2cc(O)c(O)c(O)c2)oc2cc(O)cc(O)c12 [Myricetin] | – | 53 | – |
| O=C1C[C@@H](c2ccc(O)cc2)Oc2cc(O)cc(O)c21 [Narigenin] | – | – | EC50 [3]: 81 µM |
| CC(C(=O)c1ccc(O)cc1O)c1ccc(O)cc1 (stereo not shown) [ODMA, O-Desmethyl-angolenain] | – | 67 | – |
| C=CC(C)=CCC=C(C)C [Ocimene] | does not bind* | – | – |
| COc1ccc(-c2coc3cc(O[C@@H]4O[C@H](CO)[C@@H](O)[C@H](O)[C@H]4O)ccc3c2=O)cc1 [Ononin] | does not bind* | – | – |

| SMILES | EC50 [1] | EC50 [2] [µM] | also measured |
| --- | --- | --- | --- |
| O=C(CCc1ccc(O)cc1)c1c(O)cc(O)cc1O [Phloretin] | – | 20 | – |
| O=C(CCc1ccc(O)cc1)c1c(O)cc(O)cc1O[C@@H]1O[C@H](CO)[C@@H](O)[C@H](O)[C@H]1O [Phloridzin] | – | > 500 | – |
| Oc1cc(O)c2c(c1)O[C@H](c1ccc(O)c(O)c1)[C@H](O)[C@H]2c1c(O)cc(O)c2c1O[C@H](c1ccc(O)c(O)c1)[C@H](O)C2 [Procyanidin B2] | does not bind* | – | – |
| O=C(O)c1ccc(O)c(O)c1 [Protocatechuic acid] | does not bind* | – | – |
| COc1cc(O)c2c(=O)c(-c3ccc(O)cc3)coc2c1 [Prunetin] | does not bind* | – | – |
| O=c1c(-c2ccc(O)cc2)coc2c([C@@H]3O[C@H](CO)[C@@H](O)[C@H](O)[C@H]3O)c(O)ccc12 [Puerarin] | does not bind* | – | – |
| O=c1c(O)c(-c2ccc(O)c(O)c2)oc2cc(O)cc(O)c12 [Quercetin] | – | 2.6 | EC50 [3]: 2.6 µM |
| O=C(/C=C/c1ccc(O)c(O)c1)O[C@H](Cc1ccc(O)c(O)c1)C(=O)O [Rosmarinic acid] | – | 7.8 | EC50 [3]: 7.8 µM |
| C=CCc1ccc2c(c1)OCO2 [Safrol] | – | – | EC50: 2250 µM |
| O=C(/C=C/c1ccc(O)c2c1[C@H](C(=O)O[C@H](Cc1ccc(O)c(O)c1)C(=O)O)[C@@H](c1ccc(O)c(O)c1)O2)O[C@H](Cc1ccc(O)c(O)c1)C(=O)O [Salvianolic acid B] | – | – | EC50 [3]: 292 µM |
| c1cc2c(cc1[C@H]1OC[C@H]3[C@@H]1CO[C@@H]3c1ccc3c(c1)OCO3)OCO2 [Sesamin] | – | – | EC50 (Table 1, result in words): does not bind |
| COc1ccc(-c2coc3cc(O[C@@H]4O[C@H](CO)[C@@H](O)[C@H](O)[C@H]4O)cc(O)c3c2=O)cc1 [Sissotrin] | does not bind* | – | – |
| O=C1c2c(O)cc(O)cc2O[C@H](c2ccc(O)c(O)c2)[C@H]1O [Taxifolin] | – | – | EC50 [3]: 275 µM |
| Cc1ccc(C(C)C)c(O)c1 [Thymol] | – | – | EC50 (EC50, Table 1, tested substances): 695 µM; EC50 (EC50, Table 3, active substances in Oregano): 695 µM |
| C[C@H]1[C@H](C)CC[C@]2(C(=O)O)CC[C@]3(C)C(=CC[C@@H]4[C@@]5(C)CC[C@H](O)C(C)(C)[C@@H]5CC[C@]43C)[C@H]12 [Ursolsäure] | – | – | EC50 [3]: > 500 µM |
| COc1cc(C(=O)O)ccc1O [Vanillic acid] | – | – | EC50 [3]: > 500 µM |
| O=c1cc(-c2ccc(O)cc2)oc2c([C@@H]3O[C@H](CO)[C@@H](O)[C@H](O)[C@H]3O)c(O)cc(O)c12 [Vitexin] | – | – | EC50 [3]: 156 µM |
| O=C(O)/C=C/c1ccccc1O [o-Coumaric acid] | does not bind* | – | – |
| O=C(O)/C=C/c1ccc(O)cc1 [p-Coumaric acid] | – | > 500 | EC50 [3]: > 500 µM |
| Cc1ccc(C(C)C)cc1 [p-Cymene] | does not bind* | – | – |
| C/C1=C\CC/C(C)=C/CC(C)(C)/C=C/C1 [α-Humulene] | does not bind* | – | – |
| C=C1CC/C=C(\C)CC[C@@H]2[C@@H]1CC2(C)C [β-Caryophyllene] | does not bind* | – | – |
